Q: Which solubility (mole fraction) (in ethanol, 283.15 K) does the source give for `OC[C@H]1O[C@H](O[C@]2(CCl)O[C@H](CCl)[C@@H](O)[C@@H]2O)[C@H](O)[C@@H](O)[C@H]1Cl` here?
A: Its solubility (mole fraction) is 0.00843.

Q: And the solubility (mole fraction) (in ethanol, 288.15 K)?
A: Its solubility (mole fraction) is 0.00976.

Q: And the solubility (mole fraction) (in ethanol, 293.15 K)?
A: The solubility (mole fraction) was 0.012.

Q: And the solubility (mole fraction) (in ethanol, 298.15 K)?
A: The solubility (mole fraction) was 0.0143.

Q: What about the solubility (mole fraction) (in ethanol, 303.15 K) of the same compound?
A: The solubility (mole fraction) was 0.0158.

Q: And the solubility (mole fraction) (in ethanol, 308.15 K)?
A: Its solubility (mole fraction) is 0.0184.

Q: What about the solubility (mole fraction) (in ethanol, 313.15 K) of the same compound?
A: The solubility (mole fraction) was 0.0202.

Q: What about the solubility (mole fraction) (in ethanol, 318.15 K) of the same compound?
A: The solubility (mole fraction) was 0.0228.

Q: And the solubility (mole fraction) (in ethanol, 323.15 K)?
A: The solubility (mole fraction) was 0.0248.

Q: And the solubility (mole fraction) (in ethanol, 328.15 K)?
A: The solubility (mole fraction) was 0.0281.

Q: And the solubility (mole fraction) (in ethanol, 333.15 K)?
A: Its solubility (mole fraction) is 0.0322.

Q: And the solubility (mole fraction) (in isopropanol, 288.15 K)?
A: Its solubility (mole fraction) is 0.00389.

Q: And the solubility (mole fraction) (in isopropanol, 293.15 K)?
A: The solubility (mole fraction) was 0.0044.

Q: What about the solubility (mole fraction) (in isopropanol, 298.15 K) of the same compound?
A: Its solubility (mole fraction) is 0.00533.

Q: And the solubility (mole fraction) (in isopropanol, 303.15 K)?
A: The solubility (mole fraction) was 0.00624.

Q: And the solubility (mole fraction) (in isopropanol, 308.15 K)?
A: Its solubility (mole fraction) is 0.00789.

Q: And the solubility (mole fraction) (in isopropanol, 313.15 K)?
A: Its solubility (mole fraction) is 0.00854.

Q: And the solubility (mole fraction) (in isopropanol, 318.15 K)?
A: The solubility (mole fraction) was 0.011.

Q: What about the solubility (mole fraction) (in isopropanol, 323.15 K) of the same compound?
A: Its solubility (mole fraction) is 0.0128.

Q: What about the solubility (mole fraction) (in isopropanol, 328.15 K) of the same compound?
A: Its solubility (mole fraction) is 0.015.

Q: What about the solubility (mole fraction) (in isopropanol, 333.15 K) of the same compound?
A: The solubility (mole fraction) was 0.0171.

Q: What about the solubility (mole fraction) (in methanol, 283.15 K) of the same compound?
A: The solubility (mole fraction) was 0.0307.

Q: What about the solubility (mole fraction) (in methanol, 288.15 K) of the same compound?
A: Its solubility (mole fraction) is 0.0315.

Q: What about the solubility (mole fraction) (in methanol, 293.15 K) of the same compound?
A: The solubility (mole fraction) was 0.0328.

Q: What about the solubility (mole fraction) (in methanol, 298.15 K) of the same compound?
A: Its solubility (mole fraction) is 0.0343.

Q: What about the solubility (mole fraction) (in methanol, 303.15 K) of the same compound?
A: The solubility (mole fraction) was 0.0362.

Q: What about the solubility (mole fraction) (in methanol, 308.15 K) of the same compound?
A: Its solubility (mole fraction) is 0.0383.

Q: What about the solubility (mole fraction) (in methanol, 313.15 K) of the same compound?
A: Its solubility (mole fraction) is 0.0415.

Q: And the solubility (mole fraction) (in methanol, 318.15 K)?
A: The solubility (mole fraction) was 0.0449.

Q: What about the solubility (mole fraction) (in methanol, 323.15 K) of the same compound?
A: The solubility (mole fraction) was 0.0485.

Q: And the solubility (mole fraction) (in methanol, 328.15 K)?
A: The solubility (mole fraction) was 0.0524.

Q: What about the solubility (mole fraction) (in methanol, 333.15 K) of the same compound?
A: The solubility (mole fraction) was 0.0596.

Q: What about the solubility (mole fraction) (in water, 283.15 K) of the same compound?
A: The solubility (mole fraction) was 0.0107.

Q: And the solubility (mole fraction) (in water, 288.15 K)?
A: Its solubility (mole fraction) is 0.0115.

Q: And the solubility (mole fraction) (in water, 293.15 K)?
A: The solubility (mole fraction) was 0.0123.

Q: What about the solubility (mole fraction) (in water, 298.15 K) of the same compound?
A: The solubility (mole fraction) was 0.0146.

Q: What about the solubility (mole fraction) (in water, 303.15 K) of the same compound?
A: Its solubility (mole fraction) is 0.0164.

Q: And the solubility (mole fraction) (in water, 308.15 K)?
A: The solubility (mole fraction) was 0.0182.

Q: And the solubility (mole fraction) (in water, 313.15 K)?
A: The solubility (mole fraction) was 0.0195.

Q: What about the solubility (mole fraction) (in water, 318.15 K) of the same compound?
A: The solubility (mole fraction) was 0.0223.

Q: And the solubility (mole fraction) (in water, 323.15 K)?
A: Its solubility (mole fraction) is 0.0259.

Q: What about the solubility (mole fraction) (in water, 328.15 K) of the same compound?
A: The solubility (mole fraction) was 0.0285.

Q: What about the solubility (mole fraction) (in water, 333.15 K) of the same compound?
A: Its solubility (mole fraction) is 0.0314.

Source: BigSolDB 2.1
